Experimental findings from US20240352021A1 (DANA-FARBER CANCER INSTITUTE, INC., priority 2021, published 2024) are described below.

The structures appear in SMILES notation. Some results are limits rather than exact numbers.

The target of one assay is EGFR L858R (Homo sapiens, UniProt P00533, L858R). Description: EGFR biochemical assay (headed HTRF-based; method describes Z'-LYTE), L858R. Conditions: Table 4. The method, then: (§1) To measure the IC50 values of compounds herein against EGFR, a Z′-LYTE assay (ThermoFisher) was used. Briefly, 2.5 μL of different concentrations of the compounds in 4% DMSO were added to 5 μL kinase/peptide mixture in each well of a 384-well plate (Corning Cat. #3676). 2.5 μL of 4× ATP solution (4× ATP, 50 mM HEPES, pH 7.5, 0.01% BRIJ-35, 10 mM MgCl2, 1 mM EGTA) were added to each well. The plate was shaken for 30 seconds, and then incubated at room temperature for 60 minutes. 5 μL of a 1:100000 dilution of Development Reagent A was added to each well. The plate was then incubated for 60 mins at room temperature. 5 μL of the stop reagent was then added. The plate was subsequently read on a fluorescence plate reader, and the emissions ratio was calculated to determine the ratio of Ser/Thr 07 phosphorylated by the reaction. Emissions Ratio═Coumarin Emission (443 nm)/Flourescein Emission (520 nm).
(§2) HTRF-based EGFR assay data are provided below in Table 4.

For assay [1], the target named is EGFR L858R/C797S Ba/F3 cells (Homo sapiens, UniProt P00533, C797S/L858R, cells depend on it). Nature of the assay: Ba/F3 cell proliferation (Cell Titer Glo), EGFR L858R/C797S. The settings on record: 72 hours, Table 6. It is filed as cell-based, murine. In a few lines: (§3)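 Retrovirally transduced, puromycin-selected Ba/F3 cells expressing EGFR L858R or L858R/C797S, grown in RPMI + 10% FBS, exposed to compounds for 72 h in triplicate. Viability by Cell Titer Glo ATP luminescence; IC50 from sigmoidal dose-response fit, binned A <0.1, B 0.1–0.5, C 0.5–2.5, D ≥2.5 μM.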

Assay [2] addresses EGFR mutant L858R Ba/F3 cells (Homo sapiens, UniProt P00533, L858R, cells depend on it). Description: Ba/F3 cell proliferation (Cell Titer Glo), EGFR L858R. The settings on record: 72 hours, Table 6, read-out: L858R BaF3. Type of assay: cell-based, murine. In a few lines:
as §3

Another assay deals with EGFR L858R/T790M (Homo sapiens, UniProt P00533, L858R/T790M). Nature of the assay: EGFR biochemical assay (headed HTRF-based; method describes Z'-LYTE), L858R/T790M. The settings on record: Table 4. The procedure: as §1, §2
Chain of EGFR L858R/T790M (P00533 25-1210 T790M/L858R): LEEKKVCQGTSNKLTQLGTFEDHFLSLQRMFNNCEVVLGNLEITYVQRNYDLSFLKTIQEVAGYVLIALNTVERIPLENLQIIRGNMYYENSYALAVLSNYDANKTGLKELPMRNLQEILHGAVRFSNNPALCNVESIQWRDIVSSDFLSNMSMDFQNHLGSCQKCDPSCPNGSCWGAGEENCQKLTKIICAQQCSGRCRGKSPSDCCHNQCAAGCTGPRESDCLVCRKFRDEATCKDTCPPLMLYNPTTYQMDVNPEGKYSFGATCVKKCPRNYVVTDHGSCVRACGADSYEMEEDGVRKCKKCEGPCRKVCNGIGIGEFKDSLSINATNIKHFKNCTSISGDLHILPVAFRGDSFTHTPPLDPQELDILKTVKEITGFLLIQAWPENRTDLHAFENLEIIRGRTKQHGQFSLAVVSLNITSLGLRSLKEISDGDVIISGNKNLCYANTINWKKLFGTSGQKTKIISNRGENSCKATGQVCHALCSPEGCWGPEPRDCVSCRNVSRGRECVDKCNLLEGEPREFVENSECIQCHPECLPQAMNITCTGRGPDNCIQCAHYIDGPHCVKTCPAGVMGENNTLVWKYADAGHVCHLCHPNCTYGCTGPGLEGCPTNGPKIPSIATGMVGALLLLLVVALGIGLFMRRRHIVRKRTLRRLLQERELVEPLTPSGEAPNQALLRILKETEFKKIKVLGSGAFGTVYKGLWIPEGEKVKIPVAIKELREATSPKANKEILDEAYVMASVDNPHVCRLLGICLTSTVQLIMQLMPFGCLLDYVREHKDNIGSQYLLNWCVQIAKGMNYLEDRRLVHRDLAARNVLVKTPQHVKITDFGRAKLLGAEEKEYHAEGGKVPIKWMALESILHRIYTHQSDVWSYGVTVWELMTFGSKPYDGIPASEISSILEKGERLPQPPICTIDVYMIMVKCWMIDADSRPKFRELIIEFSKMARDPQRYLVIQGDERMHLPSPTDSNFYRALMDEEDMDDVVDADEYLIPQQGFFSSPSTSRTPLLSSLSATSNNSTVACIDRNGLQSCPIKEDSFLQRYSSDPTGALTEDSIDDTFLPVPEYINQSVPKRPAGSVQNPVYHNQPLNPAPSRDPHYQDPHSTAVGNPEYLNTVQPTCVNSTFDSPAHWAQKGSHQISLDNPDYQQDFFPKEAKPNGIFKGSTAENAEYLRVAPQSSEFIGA

Chain of EGFR L858R/C797S Ba/F3 cells (P00533 whole entry C797S/L858R): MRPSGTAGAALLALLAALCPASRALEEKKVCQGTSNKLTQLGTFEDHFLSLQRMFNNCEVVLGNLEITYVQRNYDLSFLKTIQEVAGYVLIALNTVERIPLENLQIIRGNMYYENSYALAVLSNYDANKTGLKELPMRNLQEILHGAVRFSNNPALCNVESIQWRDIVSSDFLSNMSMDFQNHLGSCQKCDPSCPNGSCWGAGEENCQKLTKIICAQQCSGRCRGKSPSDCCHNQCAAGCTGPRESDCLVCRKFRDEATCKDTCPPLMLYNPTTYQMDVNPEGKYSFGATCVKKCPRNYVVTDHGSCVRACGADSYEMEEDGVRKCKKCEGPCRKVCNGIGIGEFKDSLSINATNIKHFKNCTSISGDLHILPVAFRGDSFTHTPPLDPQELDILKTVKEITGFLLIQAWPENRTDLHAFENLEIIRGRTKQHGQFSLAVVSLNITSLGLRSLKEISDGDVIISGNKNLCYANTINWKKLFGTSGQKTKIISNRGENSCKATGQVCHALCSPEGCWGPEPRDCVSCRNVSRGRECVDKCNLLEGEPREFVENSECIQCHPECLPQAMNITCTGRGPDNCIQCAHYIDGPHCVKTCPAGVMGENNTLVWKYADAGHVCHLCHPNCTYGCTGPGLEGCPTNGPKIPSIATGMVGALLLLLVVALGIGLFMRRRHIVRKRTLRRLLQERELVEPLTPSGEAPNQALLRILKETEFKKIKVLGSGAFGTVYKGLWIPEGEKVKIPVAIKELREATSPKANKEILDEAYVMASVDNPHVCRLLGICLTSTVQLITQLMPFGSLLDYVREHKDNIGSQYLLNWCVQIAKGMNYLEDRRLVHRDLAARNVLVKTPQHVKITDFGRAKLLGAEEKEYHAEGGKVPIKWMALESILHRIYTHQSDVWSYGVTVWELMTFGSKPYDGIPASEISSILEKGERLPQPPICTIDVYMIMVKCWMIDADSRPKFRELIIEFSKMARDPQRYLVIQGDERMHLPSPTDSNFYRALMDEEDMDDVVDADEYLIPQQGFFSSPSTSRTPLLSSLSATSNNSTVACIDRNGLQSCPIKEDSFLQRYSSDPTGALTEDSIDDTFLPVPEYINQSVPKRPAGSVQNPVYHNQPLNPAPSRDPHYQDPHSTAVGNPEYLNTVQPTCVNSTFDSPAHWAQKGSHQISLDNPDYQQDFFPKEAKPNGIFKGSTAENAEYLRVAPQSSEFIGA
Chain of EGFR L858R (P00533 25-1210 L858R): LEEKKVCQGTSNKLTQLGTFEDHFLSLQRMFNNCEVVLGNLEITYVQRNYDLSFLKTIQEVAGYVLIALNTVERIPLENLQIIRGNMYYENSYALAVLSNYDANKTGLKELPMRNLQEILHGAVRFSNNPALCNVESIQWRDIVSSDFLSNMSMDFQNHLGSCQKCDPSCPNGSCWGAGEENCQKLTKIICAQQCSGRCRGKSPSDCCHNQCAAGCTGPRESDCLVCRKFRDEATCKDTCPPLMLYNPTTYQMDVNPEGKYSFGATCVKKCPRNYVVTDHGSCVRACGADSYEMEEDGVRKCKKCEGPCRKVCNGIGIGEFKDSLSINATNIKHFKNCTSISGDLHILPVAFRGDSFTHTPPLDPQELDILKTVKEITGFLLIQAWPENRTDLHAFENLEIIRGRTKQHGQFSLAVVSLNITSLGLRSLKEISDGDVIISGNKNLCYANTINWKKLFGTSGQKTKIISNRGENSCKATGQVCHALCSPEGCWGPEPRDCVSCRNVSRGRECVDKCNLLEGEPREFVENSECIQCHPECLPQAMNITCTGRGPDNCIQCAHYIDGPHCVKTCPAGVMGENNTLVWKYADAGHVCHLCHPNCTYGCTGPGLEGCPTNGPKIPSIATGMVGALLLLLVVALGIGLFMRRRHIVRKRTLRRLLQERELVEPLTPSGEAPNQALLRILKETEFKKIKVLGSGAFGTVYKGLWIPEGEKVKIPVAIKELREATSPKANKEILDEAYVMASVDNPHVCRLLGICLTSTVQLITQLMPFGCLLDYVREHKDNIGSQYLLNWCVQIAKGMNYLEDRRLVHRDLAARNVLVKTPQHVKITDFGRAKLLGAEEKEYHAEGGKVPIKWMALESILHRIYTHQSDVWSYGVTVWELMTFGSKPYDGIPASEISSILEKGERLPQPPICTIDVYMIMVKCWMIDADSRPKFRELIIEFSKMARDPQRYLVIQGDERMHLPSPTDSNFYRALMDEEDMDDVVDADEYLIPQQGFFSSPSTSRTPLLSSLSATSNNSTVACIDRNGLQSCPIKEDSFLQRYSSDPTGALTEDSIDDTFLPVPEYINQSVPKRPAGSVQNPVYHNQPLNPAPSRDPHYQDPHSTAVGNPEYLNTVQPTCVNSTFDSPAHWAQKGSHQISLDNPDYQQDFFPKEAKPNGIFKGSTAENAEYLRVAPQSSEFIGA
Chain of EGFR mutant L858R Ba/F3 cells (P00533 whole entry L858R): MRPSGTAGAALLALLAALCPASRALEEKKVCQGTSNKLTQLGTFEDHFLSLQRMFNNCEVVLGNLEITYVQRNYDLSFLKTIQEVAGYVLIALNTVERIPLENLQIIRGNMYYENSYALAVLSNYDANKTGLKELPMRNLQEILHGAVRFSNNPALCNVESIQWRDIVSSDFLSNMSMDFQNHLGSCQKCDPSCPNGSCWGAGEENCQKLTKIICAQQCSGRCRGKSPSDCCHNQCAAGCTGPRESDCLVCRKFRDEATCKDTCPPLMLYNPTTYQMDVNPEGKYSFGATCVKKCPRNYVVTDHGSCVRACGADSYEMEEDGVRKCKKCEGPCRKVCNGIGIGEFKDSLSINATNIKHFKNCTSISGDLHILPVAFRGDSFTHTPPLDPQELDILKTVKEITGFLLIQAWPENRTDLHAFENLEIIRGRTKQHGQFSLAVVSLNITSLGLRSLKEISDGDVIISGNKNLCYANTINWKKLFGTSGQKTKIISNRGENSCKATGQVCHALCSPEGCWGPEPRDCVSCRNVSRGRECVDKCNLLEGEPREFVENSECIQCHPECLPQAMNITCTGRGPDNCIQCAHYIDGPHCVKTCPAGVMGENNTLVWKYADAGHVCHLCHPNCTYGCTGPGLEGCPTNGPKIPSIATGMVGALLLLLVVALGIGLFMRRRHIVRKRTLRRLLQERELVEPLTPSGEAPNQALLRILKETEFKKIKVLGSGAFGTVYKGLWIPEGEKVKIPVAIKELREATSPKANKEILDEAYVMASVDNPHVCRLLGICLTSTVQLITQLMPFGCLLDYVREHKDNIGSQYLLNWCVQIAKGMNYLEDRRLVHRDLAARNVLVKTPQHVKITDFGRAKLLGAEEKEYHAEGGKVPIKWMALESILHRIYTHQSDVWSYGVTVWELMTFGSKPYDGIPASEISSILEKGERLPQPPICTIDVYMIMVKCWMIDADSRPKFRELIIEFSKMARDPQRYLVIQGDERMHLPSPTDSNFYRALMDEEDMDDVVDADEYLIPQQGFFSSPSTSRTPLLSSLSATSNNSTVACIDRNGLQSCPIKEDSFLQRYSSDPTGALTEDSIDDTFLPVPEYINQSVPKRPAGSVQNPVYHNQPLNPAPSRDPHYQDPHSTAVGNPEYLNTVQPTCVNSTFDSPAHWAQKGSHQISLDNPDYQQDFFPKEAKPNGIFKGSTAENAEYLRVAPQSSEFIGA

For `C=CC(=O)N1CC[C@H](N2Cc3cnc(Nc4ccc(N5CCN(C)CC5)cc4)nc3N(C)C2=O)[C@H](N)C1` (relative stereo) [Compound 148, rel-(3R,4S)—S-(3-amino-1-prop-2-enoyl-4-piperidyl)-1-methyl-7-[4-(4-methylpiperazin-1-yl)anilino]-4H-pyrimido[4,5-d]pyrimidin-2-one], the IC50 against EGFR L858R and against EGFR L858R/T790M was more than 1000 nM each time. In addition, the GI50 in assay [1] and in assay [2] was not below 2500 nM each time.

For the compound `C=CC(=O)N1CC[C@@H](N2Cc3cnc(Nc4cnn(CCO)c4)nc3N(C)C2=O)c2cccc(OC)c21` (single isomer, unassigned) [Compound 117], the IC50 against EGFR L858R and on EGFR L858R/T790M was more than 100 nM throughout. The GI50 in assay [1] and in assay [2] was not below 2500 nM in each case.

`C=C(F)C(=O)N1CC[C@@H](N2Cc3cnc(Nc4cnn(CCO)c4)nc3N(C)C2=O)c2cccc(OC)c21` (single isomer, unassigned) [Compound 119]: the IC50 against EGFR L858R and against EGFR L858R/T790M was more than 100 nM in each case. The GI50 in assay [1] and in assay [2] was not below 2500 nM each time.

In the case of `C=C(F)C(=O)N1CC[C@H](N2Cc3cnc(Nc4cnn(CCO)c4)nc3N(C)C2=O)c2cccc(OC)c21` (single isomer, unassigned) [Compound 120], the IC50 on EGFR L858R and against EGFR L858R/T790M was more than 100 nM throughout. Further, the GI50 in assay [1] and in assay [2] was not below 2500 nM in each case.

Take `C=CC(=O)N1CCC(N2Cc3cnc(Nc4ccc(N5CCN(C)CC5)cc4)nc3N(C)C2=O)c2cccc(OC)c21` (single isomer, unassigned) [Compound 123]: the results for the IC50 against EGFR L858R and against EGFR L858R/T790M were 62.9 nM and more than 100 nM, respectively. Also, the GI50 in assay [1] and in assay [2] was not below 2500 nM in each case.

Consider `C=CC(=O)N1CC[C@@H](N2Cc3cnc(Nc4ccc(N5CCN(C)CC5)cc4)nc3N(C)C2=O)c2cccc(O)c21` (single isomer, unassigned) [Compound 155], for which the IC50 at EGFR L858R came to 12.3 nM; on EGFR L858R/T790M, 85.7 nM. Also, the GI50 was 100 to 500 nM in assay [1] and less than 100 nM in assay [2].

In the case of `C=CC(=O)N1CCC(N2Cc3cnc(Nc4ccc(N5CCN(C)CC5)cc4)nc3N(C)C2=O)c2cccc(O)c21` (single isomer, unassigned) [Compound 156], the IC50 on EGFR L858R was found to be 0.18 nM; at EGFR L858R/T790M, 1.18 nM. Also, the GI50 in assay [1] and in assay [2] was less than 100 nM throughout.

Turning to `C=CC(=O)N1CCC(N2Cc3cnc(Nc4ccc(N5CCN(C)CC5)cc4)nc3N(C)C2=O)[C@@H](N)C1` (stereo in doubt) [Compound 149, rel-(3S,4S)—S-(3-amino-1-prop-2-enoyl-4-piperidyl)-1-methyl-7-[4-(4-methylpiperazin-1-yl)anilino]-4H-pyrimido[4,5-d]pyrimidin-2-one], the IC50 against EGFR L858R and against EGFR L858R/T790M was more than 1000 nM each time. Moreover, the GI50 in assay [1] and in assay [2] was not below 2500 nM throughout.

Regarding `C=C(F)C(=O)N1CCC(N2Cc3cnc(Nc4cnn(CCO)c4)nc3-n3ccnc32)c2ccccc21` (stereo not shown) [001A], the IC50 on EGFR L858R and against EGFR L858R/T790M was more than 100 nM in each case. Besides, the GI50 in assay [1] and in assay [2] was not below 2500 nM in each case.

As to `C=CC(=O)N1CC[C@H](N2Cc3cnc(Nc4cnn(CCO)c4)nc3N(C)C2=O)c2cccc(OC)c21` [Compound 118], the IC50 on EGFR L858R and against EGFR L858R/T790M was more than 100 nM each time. Besides, the results for the GI50 in assay [1] and in assay [2] were 500 to 2500 nM and 100 to 500 nM, respectively.

On to `C=CC(=O)N1CCC2(N3Cc4cnc(Nc5ccc(OCCN6CCCC6)cc5)nc4N(C)C3=O)CC2C1` (stereo not drawn) [Compound 121, 1-methyl-S-(3-prop-2-enoyl-S-azabicyclo[4.1.0]heptan-6-yl)-7-[4-(2-pyrrolidin-1-ylethoxy)anilino]-4H-pyrimido[4,5-d]pyrimidin-2-one], for which the IC50 against EGFR L858R and at EGFR L858R/T790M was more than 100 nM in each case. For the same compound, the GI50 in assay [1] and in assay [2] was not below 2500 nM in each case.

Take `C=CC(=O)N1CCC(n2c(=O)c3cnc(Nc4cnn(CCO)c4)nc3n(C)c2=O)c2ccccc21` (stereo not drawn) [Compound 122, 7-[[1-(2-hydroxyethyl)pyrazol-4-yl]amino]-1-methyl-S-(1-prop-2-enoyl-3,4-dihydro-2H-quinolin-4-yl)pyrimido[4,5-d]pyrimidine-2,4-dione]: the IC50 against EGFR L858R and against EGFR L858R/T790M was more than 100 nM throughout. The GI50 in assay [1] fell in the range of 500 to 2500 nM; in assay [2], 100 to 500 nM.

Consider `C=CC(=O)N1CCC(C)(N2Cc3cnc(Nc4cnn(CCO)c4)nc3N(C)C2=O)CC1` [Compound 125, 7-[[1-(2-hydroxyethyl)pyrazol-4-yl]amino]-1-methyl-S-(4-methyl-1-prop-2-enoyl-4-piperidyl)-4H-pyrimido[4,5-d]pyrimidin-2-one], for which the IC50 against EGFR L858R and at EGFR L858R/T790M was more than 100 nM throughout. The GI50 in assay [1] and in assay [2] was not below 2500 nM each time.

In the case of `C=CC(=O)N1CC[C@H](N2Cc3cnc(Nc4cnn(CCO)c4)nc3N(C)C2=O)[C@@H]2CCC[C@@H]21` [Compound 126, 7-[[1-(2-hydroxyethyl)pyrazol-4-yl]amino]-1-methyl-S-(1-prop-2-enoyl-2,3,4,4a, 5,6,7,7a-octahydrocyclopenta[b]pyridin-4-yl)-4H-pyrimido[4,5-d]pyrimidin-2-one], the IC50 against EGFR L858R and on EGFR L858R/T790M was more than 100 nM throughout. Further, the GI50 in assay [1] and in assay [2] was not below 2500 nM each time.

In the case of `[2H]C1(N2Cc3cnc(Nc4cnn(CCO)c4)nc3N(C)C2=O)CCN(C(=O)C=C)c2ccccc21` (stereo not shown) [Compound 127], the IC50 against EGFR L858R is 1.2 nM; against EGFR L858R/T790M, more than 700 nM. In addition, the GI50 in assay [1] and in assay [2] was less than 100 nM each time.

Regarding `[2H]C1(N2Cc3cnc(Nc4ccc(OCCN5CCCC5)cc4)nc3N(C)C2=O)CCN(C(=O)C=C)c2ccccc21` (stereo not shown) [Compound 128], the IC50 on EGFR L858R was 0.9 nM; at EGFR L858R/T790M, more than 700 nM. For the same compound, the GI50 in assay [1] and in assay [2] was less than 100 nM in each case.

For the compound `[2H]C1(N2Cc3cnc(Nc4ccc(N5CCN(C)CC5)cc4)nc3N(C)C2=O)CCN(C(=O)C=C)c2c(OC)cccc21` (stereo not shown) [Compound 130, 3-(4-deuterio-8-methoxy-1-prop-2-enoyl-2,3-dihydroquinolin-4-yl)-1-methyl-7-[4-(4-methylpiperazin-1-yl)anilino]-4H-pyrimido[4,5-d]pyrimidin-2-one], the IC50 at EGFR L858R was 43 nM; at EGFR L858R/T790M, more than 1000 nM. Moreover, the GI50 in assay [1] was 100 to 500 nM; in assay [2], less than 100 nM.

Turning to `C=CC(=O)N1CCC(N2Cc3cnc(Nc4ccc(N5CCN(C)CC5)cc4)nc3N(C)C2=O)c2cnn(C)c21` (stereo not drawn) [Compound 132, 1-methyl-7-[4-(4-methylpiperazin-1-yl)anilino]-S-(1-methyl-7-prop-2-enoyl-5,6-dihydro-4H-pyrazolo[3,4-b]pyridin-4-yl)-4H-pyrimido[4,5-d]pyrimidin-2-one], the IC50 at EGFR L858R and against EGFR L858R/T790M was more than 1000 nM in each case. Also, the GI50 in assay [1] and in assay [2] was 100 to 500 nM throughout.

Turning to `C=CC(=O)N1CCC(N2Cc3cnc(Nc4ccc(N5CCN(C)CC5)cc4)nc3N(C)C2=O)c2cccc(O)c21` (stereo not shown) [Compound 133], the IC50 at EGFR L858R amounted to 1.13 nM; against EGFR L858R/T790M it was 10 nM. Further, the GI50 in assay [1] and in assay [2] was less than 100 nM in each case.
